“And” between values parts separate entries of the source, which are not always exact repeats. Equal entries are not always repeated.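 96-well plates; 48 h exposure; 5 concentrations. Endpoints by linear interpolation between flanking doses. Not reached: highest tested concentration assigned. GI50 marks 50% less growth. TGI denotes the concentration required for complete inhibition of growth.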
Legend:
Assay in all cases: growth of human tumour cells (NCI), 48 h
CCRF-CEM leukemia = system: CCRF-CEM leukemia
HCT-15 colon = system: HCT-15 colon
HOP-62 NSCLC = system: HOP-62 NSCLC
HT29 colon = system: HT29 colon
KM12 colon = system: KM12 colon
MALME-3M melanoma = system: MALME-3M melanoma
NCI-H522 lung = system: NCI-H522 lung
RXF 393 renal = system: RXF 393 renal
SK-MEL-2 melanoma = system: SK-MEL-2 melanoma
SW-620 colon = system: SW-620 colon

Compound	TGI (CCRF-CEM leukemia)	TGI (HCT-15 colon)	TGI (HOP-62 NSCLC)	TGI (HT29 colon)	TGI (KM12 colon)	TGI (MALME-3M melanoma)	TGI (NCI-H522 lung)	TGI (RXF 393 renal)	TGI (SK-MEL-2 melanoma)	TGI (SW-620 colon)	GI50 (CCRF-CEM leukemia)	GI50 (HCT-15 colon)	GI50 (HOP-62 NSCLC)	GI50 (HT29 colon)	GI50 (KM12 colon)	GI50 (MALME-3M melanoma)	GI50 (NCI-H522 lung)	GI50 (RXF 393 renal)	GI50 (SK-MEL-2 melanoma)	GI50 (SW-620 colon)
COc1ccc2c(c1)[n+]([O-])c(/C(C)=N/NC(=O)CC#N)c[n+]2[O-]	> 100 µM	> 100 µM	> 100 µM	> 100 µM	> 100 µM	> 100 µM	> 100 µM	> 100 µM	> 100 µM	25.8 µM	–	–	–	–	–	–	–	–	–	–
Oc1ccccc1-c1nc2c3ccccc3c3ccccc3c2[nH]1	16.8 µM	17.9 µM	15 µM	27 µM	14.1 µM	31.7 µM	10.3 µM	18.8 µM	16.7 µM	22.4 µM	4.6 µM	5.31 µM	3.93 µM	14 µM	4.32 µM	16.2 µM	3.07 µM	6230 nM	5.16 µM	10.6 µM
CNC(=S)N/N=C/c1ccc([N+](=O)[O-])s1	> 10 µM	> 10 µM	> 10 µM	> 10 µM	> 10 µM	> 10 µM	> 10 µM	> 10 µM	> 10 µM	> 10 µM	–	–	–	–	–	–	–	–	–	–
Cc1c2ccc(N(C)c3ccnc(Nc4cccc(S(N)(=O)=O)c4)n3)cc2nn1C	> 25 µM	> 25 µM	> 25 µM	> 25 µM	> 25 µM	20.2 µM	23.7 µM	> 22.7 µM	16.7 µM	> 25 µM	9.21 µM	9.34 µM	9.03 µM	8.03 µM	8.12 µM	5.74 µM	6.09 µM	7140 nM	7.06 µM	11.7 µM
CCN(CC)CCNc1n[n+]([O-])c2ccccc2[n+]1[O-]	13.7 µM and 30.6 µM	26.1 µM and 25 µM	20 µM	39.2 µM and 42.7 µM	25.2 µM and 29 µM	20.7 µM and 20.8 µM	17.3 µM and 22.9 µM	25.4 µM and 42.7 µM	13.2 µM and 19.1 µM	82 µM and 55.9 µM	–	–	–	–	–	–	3.85 µM and 7.95 µM	–	2.34 µM and 5.13 µM	–
CCOc1c(Cl)cc(CNC(C)C(O)c2ccccc2)cc1OC (configuration not stated)	> 100 µM	67.4 µM	> 100 µM	45.5 µM	49.2 µM	33.6 µM	43.3 µM	52.1 µM	39 µM	58.1 µM	35.6 µM	21.9 µM	31 µM	18.6 µM	22.5 µM	16.6 µM	20.7 µM	16400 nM	21.4 µM	22.8 µM
COC(=O)C1=C(CS(=O)c2ccccc2[N+](=O)[O-])ON(C)C1c1ccccc1 (configuration not stated)	39.3 µM	76.3 µM	> 100 µM	> 100 µM	> 100 µM	> 100 µM	38 µM	71.1 µM	> 100 µM	88.6 µM	–	–	–	–	–	–	–	–	–	–
O=[N+]([O-])c1ccc2c(c1)[O][Sn]([I])([I])[O]2	> 100 µM	> 100 µM	> 100 µM	> 100 µM	> 100 µM	> 100 µM	> 100 µM	> 100 µM	> 100 µM	> 100 µM	42.3 µM	54.4 µM	> 100 µM	> 100 µM	> 100 µM	> 100 µM	61.4 µM	52100 nM	> 100 µM	> 100 µM
Cc1cc(-c2nnc3n2CCCCC3)c(C)n1-c1ccc(Cl)c(Cl)c1	71.5 µM	> 100 µM	32.4 µM	38.1 µM	32 µM	30.4 µM	28.3 µM	29.8 µM	31 µM	50.9 µM	18.5 µM	11.7 µM	16.8 µM	16 µM	16.6 µM	13.8 µM	12.6 µM	8420 nM	14.9 µM	17.5 µM
O=Cc1ccc(-c2cccs2)s1	> 100 µM	> 100 µM	> 100 µM	> 68.1 µM	> 100 µM	> 100 µM	> 100 µM	65.3 µM	> 100 µM	> 100 µM	–	–	–	–	–	–	–	–	–	–
Cc1ccc(NC(=O)Cn2c(Br)nc3c2c(=O)n(C)c(=O)n3C)cc1	65.8 µM	29.3 µM	9.7 µM	51.5 µM	29.9 µM	7.01 µM	36.3 µM	6.28 µM	27.4 µM	33.2 µM	17.3 µM	12.2 µM	2.83 µM	13.8 µM	13.6 µM	2.33 µM	9.27 µM	2290 nM	13.4 µM	13.5 µM
FCc1ncc(-c2ccc(C(F)(F)F)cc2)c(NC2CCCCCC2)n1	> 10 µM	> 10 µM	> 10 µM	> 10 µM	> 10 µM	> 10 µM	> 10 µM	> 10 µM	> 10 µM	> 10 µM	> 10 µM	> 10 µM	> 10 µM	> 10 µM	> 10 µM	> 10 µM	> 10 µM	> 10000 nM	> 10 µM	> 10 µM
S=c1nc(-c2cccnc2)[nH][nH]1	> 100 µM	> 100 µM	> 100 µM	> 100 µM	> 100 µM	> 100 µM	> 1 µM	> 100 µM	> 100 µM	> 100 µM	–	–	–	–	–	–	–	–	–	–
Nc1nc(CCC(=O)Nc2cccc(C(F)(F)F)c2)cc(-c2ccc3ccccc3c2)n1	> 100 µM	> 100 µM	> 100 µM	> 100 µM	> 100 µM	> 100 µM	> 100 µM	> 100 µM	> 100 µM	> 100 µM	–	–	–	–	–	–	–	–	–	–
N#CC(NNC(=O)c1ccccc1O)c1cccc(O)c1 (configuration not stated)	> 100 µM	> 100 µM	> 100 µM	> 100 µM	> 100 µM	> 100 µM	98.5 µM	85.3 µM	> 100 µM	> 100 µM	–	–	–	–	–	–	–	–	–	–
Cc1ccc2c(c1)C(c1cccc3ccccc13)OC2=O (configuration not stated)	> 100 µM	> 100 µM	81.7 µM	> 100 µM	> 100 µM	> 100 µM	> 100 µM	80.4 µM	> 100 µM	> 100 µM	–	–	–	–	–	–	–	–	–	–
O=C1Nc2cccc3cc(NCC(O)CCl)cc1c23 (configuration not stated)	> 100 µM	> 100 µM	> 100 µM	> 100 µM	> 100 µM	> 100 µM	> 100 µM	> 100 µM	69.9 µM	> 100 µM	–	–	–	–	–	–	–	–	–	–
C=C(C=O)CCCC(C)[C@@H]1CCC23CC12CCC1[C@@]2(C)CCC(OC(C)=O)C(C)(C)C2CC(OC2OC(COC(C)=O)C(O)C(O)C2O)[C@]13C (some centres not stated)	5 µM	7.5 µM	14.3 µM	11.9 µM	9.53 µM	7.17 µM	1.53 µM	11.7 µM	13.9 µM	1.44 µM	–	–	–	–	–	–	–	–	–	–
COC(=O)CCC1=C(C)/C(=C/c2[nH]c(-c3ccc[nH]3)cc2OC)N=C1C	6.5 µM	1.95 µM	1.53 µM	2.03 µM	2.39 µM	3.27 µM	1.78 µM	2.07 µM	0.813 µM	1.67 µM	0.306 µM	0.265 µM	0.454 µM	0.267 µM	0.389 µM	1.14 µM	0.413 µM	352 nM	0.273 µM	0.333 µM
COc1cc2nc(-c3ccc(C(F)(F)F)cc3)cc(OCCCN3CCCCC3)c2cc1OC	10.6 µM	10.1 µM	13.6 µM	2.52 µM	26.9 µM	4.03 µM	21.7 µM	4.26 µM	8.89 µM	13.3 µM	1.83 µM	0.399 µM	0.947 µM	0.415 µM	2.92 µM	1.26 µM	2.44 µM	1090 nM	2.64 µM	2.91 µM
COC(=O)c1nc(N)[nH]c(=O)c1CCCCCc1c(C(=O)OC)nc(N)[nH]c1=O	> 50 µM	> 50 µM	> 50 µM	> 50 µM	> 50 µM	> 50 µM	> 50 µM	> 50 µM	> 50 µM	> 50 µM	–	–	–	–	–	–	–	–	–	–
COC(=O)CCCCCN=Cc1c(O)c(O)c(C(C)C)c2cc(C)c(-c3c(C)cc4c(C(C)C)c(O)c(O)c(C=NCCCCCC(=O)OC)c4c3O)c(O)c12	11.1 µM	> 32.5 µM	28.1 µM	> 32.5 µM	> 32.5 µM	> 32.5 µM	6.52 µM	4.65 µM	28.7 µM	> 32.5 µM	0.946 µM	1.55 µM	1.35 µM	1.29 µM	1.28 µM	2.45 µM	0.968 µM	851 nM	2.2 µM	1.37 µM
O=[N+]([O-])c1ccc2c(c1)[O][Sn][O]2	> 150 µg/mL	> 150 µg/mL	> 150 µg/mL	> 150 µg/mL	> 150 µg/mL	> 150 µg/mL	69.5 µg/mL	> 150 µg/mL	> 150 µg/mL	> 150 µg/mL	17.6 µg/mL	16.8 µg/mL	> 150 µg/mL	86 µg/mL	37.6 µg/mL	149 µg/mL	4.23 µg/mL	8.22 µg/mL	> 150 µg/mL	114 µg/mL
N#C[C@@H]1C(n2ccc(N)nc2=O)O[C@H](CO)[C@H]1O (some centres not stated)	> 100 µM	> 100 µM	> 100 µM	> 100 µM	> 100 µM	> 100 µM	> 100 µM	> 100 µM	> 100 µM	> 100 µM	0.135 µM	> 100 µM	3.97 µM	> 85 µM	> 100 µM	> 55.4 µM	4.24 µM	> 100000 nM	> 100 µM	53.6 µM
CC[C@@]1(O)C(=O)OCc2c1cc1n(c2=O)Cc2cc3cc(N)ccc3nc2-1	–	–	0.0157 µM and < 0.0151 µM	–	2.9 µM	1.21 µM and 0.478 µM	0.721 µM and 0.182 µM	–	1.58 µM	5.06 µM	0.1 µM	0.214 µM and 0.102 µM	0.00135 µM	0.0176 µM and 0.0225 µM	0.232 µM	0.101 µM and 0.037 µM	0.0261 µM and < 0.0112 µM	48.9 nM	0.528 µM and 0.311 µM	0.0113 µM and < 0.031 µM
CC(C)[C@H]1C(=O)N[C@@H](CCCN=C(N)N)C(=O)NCC(=O)N[C@@H](CC(=O)O)C(=O)N[C@H](Cc2ccccc2)C(=O)N1C	> 100 µM	> 74.8 µM	> 100 µM	> 100 µM	> 100 µM	> 100 µM	5.7 µM	> 100 µM	5.78 µM	> 100 µM	> 100 µM	3.09 µM	7.04 µM	> 61.1 µM	> 100 µM	> 100 µM	2.32 µM	2630 nM	1.35 µM	–
CCOC(=O)C(=O)Nc1c(C(C)C)cccc1C(C)C	> 100 µM	> 100 µM	> 100 µM	> 100 µM	> 100 µM	> 100 µM	> 100 µM	> 100 µM	> 100 µM	> 100 µM	–	–	–	–	–	–	–	–	–	–
CN(C)C(=O)O[C@@H]1CN[C@@H](C#Cc2cc3ncnc(Nc4ccc(OCc5cccc(F)c5)c(Cl)c4)c3s2)C1	> 25 µM	> 25 µM	> 25 µM	> 25 µM	> 25 µM	> 25 µM	> 10.5 µM	> 25 µM	> 25 µM	> 25 µM	2.78 µM	> 25 µM	> 25 µM	> 25 µM	9.85 µM	9.41 µM	2.14 µM	> 20400 nM	> 25 µM	> 25 µM
NC(=O)c1ccc(C2C3=C(CCCC3=O)OC3=C2C(=O)c2ccccc2C3=O)cc1 (configuration not stated)	2.21 µM	3.37 µM	2.72 µM	5.58 µM	4.52 µM	0.986 µM	0.757 µM	2.87 µM	2.06 µM	1.72 µM	0.35 µM	1.4 µM	1.35 µM	1.77 µM	1.34 µM	0.332 µM	0.307 µM	1430 nM	0.576 µM	0.383 µM
c1nnc(NCNc2nncs2)s1	> 100 µM	> 100 µM	> 100 µM	> 100 µM	> 100 µM	> 100 µM	> 100 µM	> 100 µM	> 100 µM	> 100 µM	–	–	–	–	–	–	–	–	–	–
